The IC50 is the concentration needed to halve the response being measured.

For experiment [1], the target named is ^NΔ17PfArf1 (His-tagged P. falciparum Arf1 minus the N-terminal 17 amino acids) (Plasmodium falciparum) (UniProt Q7KQL3).
The next experiment concerns the target T1, PfArfGAP1 (Plasmodium falciparum, UniProt Q8I4Y5).
T1 construct: gene PF3D7_1244600; GAP domain, amino acids 1–161; with PfArf1 (NΔ17, GTP-loaded)
Nature of the experiment: plate-based GST-GGA3 GAT binding GAP assay; confirmed by tryptophan fluorescence. It is filed as biochemical.

The target of another experiment is T2, ARNO (Homo sapiens, UniProt Q99418).
T2 construct: gene CYTH2; Sec7 domain, amino acids 51–253; with Arf1 (NΔ17HsArf1 or NΔ17PfArf1, GDP-loaded)
As to the kind of experiment: plate-based GST-GGA3 GAT binding nucleotide exchange assay, […] compound. The class given is biochemical.

T2 sequence (Q99418 51-253): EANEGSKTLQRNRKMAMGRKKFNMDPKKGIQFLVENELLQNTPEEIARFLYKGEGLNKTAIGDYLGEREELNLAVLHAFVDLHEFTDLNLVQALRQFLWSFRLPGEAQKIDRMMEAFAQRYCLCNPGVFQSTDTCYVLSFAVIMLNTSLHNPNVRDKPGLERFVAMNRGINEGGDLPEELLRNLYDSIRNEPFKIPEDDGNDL
T2 sequence (P84077 18-181 partner): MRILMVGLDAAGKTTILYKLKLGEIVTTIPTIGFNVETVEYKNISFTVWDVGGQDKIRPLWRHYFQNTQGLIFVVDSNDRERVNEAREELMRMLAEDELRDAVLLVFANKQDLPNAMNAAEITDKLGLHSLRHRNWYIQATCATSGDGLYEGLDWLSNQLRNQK

On to “PfArfGAP1^GAP (putative GAP domain of P. falciparum ArfGAP1) (domain or fragment)”, for which, in experiment [1], the half-maximal GAP activity (EC50): deactivation of 1 µM ^NΔ17PfArf1-GTP by three-fold serial dilutions (0.5–0.002 µM) of the GAP domain, read by the GST-GGA3^GAT binding assay was 0.021 µM.
As to `CC1(C(=O)Nc2cccc3cccnc23)CCN1C(=O)CCC1CCCC1` (stereo not drawn) [Chem1099], at PfArfGAP1, the IC50 turned out to be 4.7 µM.
Regarding SecinH3, the “% inhibition at 50 μM” value on ARNO stood at 93.

For the origin of these results see paper PMC7061341, “Detection of the in vitro modulation of Plasmodium falciparum Arf1 by Sec7 and ArfGAP domains using a colorimetric plate-based assay” (Scientific Reports, 2020).
